Data: ChEMBL document CHEMBL4177649, “On-site reaction for PPARγ modification using a specific bifunctional ligand” (Bioorg Med Chem, 2017)
Each block holds one molecule with its values, some of them ahead of it. The source made the active and inactive calls. The calls are words filed in the database; no cut-off is given here.

Key:
[1] = biological target: T1, Peroxisome proliferator-activated receptor gamma (Homo sapiens) (UniProt P37231); assay: Binding affinity to Gal4-fused PPARgamma LBD (unknown origin) expressed in Escherichia coli DH5alpha cell lysates at 4 equiv in presence of ADIBO-fluorescein by silver staining method
T1 sequence (whole entry): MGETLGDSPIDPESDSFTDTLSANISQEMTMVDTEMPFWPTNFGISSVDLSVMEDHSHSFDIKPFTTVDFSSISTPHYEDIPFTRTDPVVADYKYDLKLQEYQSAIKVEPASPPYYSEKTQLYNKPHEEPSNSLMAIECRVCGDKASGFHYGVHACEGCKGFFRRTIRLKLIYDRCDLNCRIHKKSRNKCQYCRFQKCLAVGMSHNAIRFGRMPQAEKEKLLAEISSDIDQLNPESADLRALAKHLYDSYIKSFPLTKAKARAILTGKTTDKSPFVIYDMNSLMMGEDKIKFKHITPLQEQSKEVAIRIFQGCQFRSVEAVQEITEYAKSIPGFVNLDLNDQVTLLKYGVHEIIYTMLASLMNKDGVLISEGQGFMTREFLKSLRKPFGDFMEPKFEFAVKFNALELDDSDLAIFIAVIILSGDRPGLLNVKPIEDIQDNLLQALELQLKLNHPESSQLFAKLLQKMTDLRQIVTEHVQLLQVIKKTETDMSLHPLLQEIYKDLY

[2] = biological target: T1, Peroxisome proliferator-activated receptor gamma (Homo sapiens); assay: Binding affinity to Gal4-fused PPARgamma LBD (unknown origin) expressed in Escherichia coli DH5alpha cell lysates in presence of ADIBO-fluorescein by SDS-PAGE analysis
[3] = biological target: T1, Peroxisome proliferator-activated receptor gamma (Homo sapiens); assay: Binding affinity to Gal4-fused PPARgamma LBD (unknown origin) expressed in Escherichia coli DH5alpha cell lysates at 4 equiv in presence of ADIBO-fluorescein by SDS-PAGE analysis
[4] = biological target: T1, Peroxisome proliferator-activated receptor gamma (Homo sapiens); assay: Transactivation at human Gal4-fused PPARgamma LBD expressed in African green monkey COS7 cells by dual luciferase assay; assay type: cell-based
[5] = biological target: T1, Peroxisome proliferator-activated receptor gamma (Homo sapiens); assay: Binding affinity to human Gal4-fused PPARgamma LBD expressed in African green monkey COS7 cells assessed in presence of ADIBO-fluorescein; assay type: cell-based
[6] = biological target: T1, Peroxisome proliferator-activated receptor gamma (Homo sapiens); assay: Binding affinity to Gal4-fused human PPARgamma LBD (204 to 477 residues) assessed as covalent modification at 100 uM after 24 hrs by ESI-mass analysis
[7] = biological target: T1, Peroxisome proliferator-activated receptor gamma (Homo sapiens); assay: Binding affinity to Gal4-fused human PPARgamma LBD (204 to 477 residues) assessed as labeling efficiency at 100 uM after 12 hrs by ESI-mass analysis
[8] = biological target: T2, Peroxisome proliferator-activated receptor gamma (Mus musculus) (UniProt P37238); assay: Binding affinity to Gal4-fused PPARgamma LBD in mouse 3T3-L1 cells assessed in presence of ADIBO-fluorescein; assay type: cell-based
T2 sequence (whole entry): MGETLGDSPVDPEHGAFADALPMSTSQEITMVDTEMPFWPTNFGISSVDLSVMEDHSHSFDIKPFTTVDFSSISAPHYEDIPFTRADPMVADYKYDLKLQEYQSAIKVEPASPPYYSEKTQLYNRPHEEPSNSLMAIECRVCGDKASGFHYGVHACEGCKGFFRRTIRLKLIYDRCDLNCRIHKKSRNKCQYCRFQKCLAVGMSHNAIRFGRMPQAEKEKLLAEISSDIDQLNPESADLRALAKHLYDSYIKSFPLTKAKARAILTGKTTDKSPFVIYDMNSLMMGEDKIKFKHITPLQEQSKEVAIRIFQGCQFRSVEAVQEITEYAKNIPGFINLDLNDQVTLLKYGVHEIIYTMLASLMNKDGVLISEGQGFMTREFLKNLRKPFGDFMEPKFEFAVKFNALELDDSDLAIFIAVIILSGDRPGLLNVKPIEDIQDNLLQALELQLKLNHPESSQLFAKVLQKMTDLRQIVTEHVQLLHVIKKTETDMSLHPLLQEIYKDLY

[9] = biological target: T1, Peroxisome proliferator-activated receptor gamma (Homo sapiens); assay: Binding affinity to Gal4-fused PPARgamma LBD (unknown origin) expressed in Escherichia coli DH5alpha cell lysates at 4 equiv in presence of ADIBO-fluorescein by Coomassie Brilliant Blue staining method
[10] = biological target: T1, Peroxisome proliferator-activated receptor gamma (Homo sapiens); assay: Binding affinity to Gal4-fused human PPARgamma LBD (204 to 477 residues) assessed as covalent modification at 100 uM after 24 hrs in presence of methyl N-((3E,5E)-2-oxohexadeca-3,5-dien-1-yl)-N-tosylglycinate by ESI-mass analysis
[11] = biological target: T1, Peroxisome proliferator-activated receptor gamma (Homo sapiens); assay: Binding affinity to Gal4-fused human PPARgamma LBD (204 to 477 residues) assessed as covalent modification at 100 uM after 24 hrs in presence of methyl N-((3E,5E)-16-azido-2-oxohexadeca-3,5-dien-1-yl)-N-tosylglycinate by ESI-mass analysis

SMILES: O=C(CCCCCNC(=O)C(F)(F)F)N1Cc2ccccc2C#Cc2ccccc21
Activity [10]: inactive | Activity [11]: Active

SMILES: O=C(O)c1cc(NC(=S)NCCCCCC(=O)N2Cc3ccccc3C#Cc3ccccc32)ccc1-c1c2ccc(=O)cc-2oc2cc(O)ccc12
Activity [9]: Active

Continued, values first:

Activity [1]: Active | Activity [2]: Dose-dependent effect | Activity [3]: Active | Activity [4]: Dose-dependent effect | Activity [5]: inactive | Activity [6]: Active | Activity [7]: Active | Activity [8]: inactive | Activity [9]: Active
SMILES: COC(=O)CN(CC(=O)/C=C/C=C/CCCCCCCCCCN=[N+]=[N-])S(=O)(=O)c1ccc(C)cc1

Activity [7]: Active
SMILES: Cc1ccc(S(=O)(=O)N(CC(=O)O)CC(=O)/C=C/C=C/CCCCCCCCCCn2nnc3c2-c2ccccc2CN(C(=O)CCCCCNC(=O)C(F)(F)F)c2ccccc2-3)cc1

Activity [4]: Dose-dependent effect
SMILES: CCCCCCCCCC/C=C/C=C/C(=O)CN(CC(=O)OC)S(=O)(=O)c1ccc(C)cc1
